Strand notation (5' to 3'): a small letter for the sugar, then the base; units joined by * are phosphorothioate-linked, units joined directly phosphodiester-linked; [ ] holds rarer units or linkages, { } end groups; capitals alone tell only the bases. d = 2'-deoxy (DNA); m = 2'-O-methyl; f = 2'-fluoro
Tested on: human EPAS1 (Hif2α) cDNA in psiCHECK2 (Renilla luciferase/EPAS1 fusion mRNA) in Hep3B cells
Assay: Efficacy screen of Hif2α RNAi triggers in vitro, dual-luciferase reporter assay (1 nM and 0.1 nM)
Assay type: cell-based
Conditions: Hep3B cells co-transfected with EPAS1-psiCHECK2, Renilla luciferase normalized to firefly luciferase
Description: Candidate sequences were identified by in silico analysis and screened as chemically modified canonical siRNAs in vitro. For screening purposes, the human EPAS1 (Hif2α) cDNA sequence (accession #NM 001430) was synthesized and cloned (DNA 2.0, Menlo Park, Calif.) into a commercially-available reporter-based screening plasmid, psiCHECK2 (Promega, Madison, Wis.) which generated a Renilla luciferase/EPAS1 fusion mRNA. For RNAi trigger efficacy evaluation, Hep3B cells, a human hepatocellular carcinoma line, were plated at 10,000 cells per well in 96-well format. Each of the 187 EPAS1 RNAi triggers, in two subsets, was co-transfected at two concentrations, 1 nM and 0.1 nM, with 25 ng EPAS1-psiCHECK2 plasmid DNA per well and 0.2 μL LipoFectamine 2000 (Life Technologies) per well. Gene knockdown was determined by measuring Renilla luciferase levels normalized to the levels of constitutively-expressed firefly luciferase, also present on the psiCHECK-2 plasmid, using the Dual Luciferase Reporter Assay (Promega, Madison, Wis.) Table 5.

Substance	Relative Rluc-Hif2α (0.1 nM RNAi trigger)	Relative Rluc-Hif2α (1 nM RNAi trigger)
2283 (sense fAmGfCmAfUmGfGmGfGmGfCmUfAmCfGmUfGmUfAdT; antisense dTfAmCfAmCfGmUfAmGfCmCfCmCfCmAfUmGfCmUdT*dT; siRNA) [compound 2283]	1.175 ± 0.194	0.882 ± 0.026
2284 (sense fGmCfAmUfGmGfGmGfGmCfUmAfCmGfUmGfUmGfAdT; antisense dTfCmAfCmAfCmGfUmAfGmCfCmCfCmCfAmUfGmCdT*dT; siRNA) [compound 2284]	1.227 ± 0.266	0.787 ± 0.062
2285 (sense fCmAfUmCfUmAfCmAfAmCfCmCfUmCfGmCfAmAfAdT; antisense dTfUmUfGmCfGmAfGmGfGmUfUmGfUmAfGmAfUmGdT*dT; siRNA) [compound 2285]	1.109 ± 0.247	0.723 ± 0.088
2286 (sense fAmUfCmUfAmCfAmAfCmCfCmUfCmGfCmAfAmCfAdT; antisense dTfGmUfUmGfCmGfAmGfGmGfUmUfGmUfAmGfAmUdT*dT; siRNA) [compound 2286]	1.291 ± 0.367	0.878 ± 0.078
2287 (sense fCmUfAmCfAmAfCmCfCmUfCmGfCmAfAmCfCmUfAdT; antisense dTfAmGfGmUfUmGfCmGfAmGfGmGfUmUfGmUfAmGdT*dT; siRNA) [compound 2287]	0.871 ± 0.102	0.751 ± 0.011
2288 (sense fUmAfCmAfAmCfCmCfUmCfGmCfAmAfCmCfUmGfAdT; antisense dTfCmAfGmGfUmUfGmCfGmAfGmGfGmUfUmGfUmAdT*dT; siRNA) [compound 2288]	0.943 ± 0.029	0.932 ± 0.118
2289 (sense fUmUfUmGfAmUfAmGfCmAfGmUfGmGfCmAfAmGfAdT; antisense dTfCmUfUmGfCmCfAmCfUmGfCmUfAmUfCmAfAmAdT*dT; siRNA) [compound 2289]	0.992 ± 0.153	1.039 ± 0.146
2290 (sense fAmGfUmAfAmCfUmUfCmCfUmAfUmUfCmAfCmCfAdT; antisense dTfGmGfUmGfAmAfUmAfGmGfAmAfGmUfUmAfCmUdT*dT; siRNA) [compound 2290]	0.698 ± 0.155	0.353 ± 0.036
2291 (sense fUmCfGmGfGmAfAmUfCmAfGmAfAmCfUmUfCmGfAdT; antisense dTfCmGfAmAfGmUfUmCfUmGfAmUfUmCfCmCfGmAdT*dT; siRNA) [compound 2291]	0.911 ± 0.092	0.434 ± 0.046
2292 (sense fCmUfGmCfUmCfCmAfCmGfCmCfCmAfAmUfAmGfAdT; antisense dTfCmUfAmUfUmGfGmGfCmGfUmGfGmAfGmCfAmGdT*dT; siRNA) [compound 2292]	1.135 ± 0.048	0.832 ± 0.000
2293 (sense fUmGfCmUfCmCfAmCfGmCfCmCfAmAfUmAfGmCfAdT; antisense dTfGmCfUmAfUmUfGmGfGmCfGmUfGmGfAmGfCmAdT*dT; siRNA) [compound 2293]	1.010 ± 0.045	0.925 ± 0.126
2294 (sense fGmCfUmCfCmAfCmGfCmCfCmAfAmUfAmGfCmCfAdT; antisense dTfGmGfCmUfAmUfUmGfGmGfCmGfUmGfGmAfGmCdT*dT; siRNA) [compound 2294]	0.743 ± 0.100	0.546 ± 0.033
2295 (sense fAmCfGmCfCmCfAmAfUmAfGmCfCmCfUmGfAmAfAdT; antisense dTfUmUfCmAfGmGfGmCfUmAfUmUfGmGfGmCfGmUdT*dT; siRNA) [compound 2295]	1.047 ± 0.184	0.863 ± 0.122
2296 (sense fCmAfUmCfUmUfUmGfGmAfUmAfAmCfGmAfCmCfAdT; antisense dTfGmGfUmCfGmUfUmAfUmCfCmAfAmAfGmAfUmGdT*dT; siRNA) [compound 2296]	0.411 ± 0.079	0.213 ± 0.028
2297 (sense fCmAfAmUfGmCfAmGfUmAfCmCfCmAfGmAfCmGfAdT; antisense dTfCmGfUmCfUmGfGmGfUmAfCmUfGmCfAmUfUmGdT*dT; siRNA) [compound 2297]	0.704 ± 0.083	0.643 ± 0.028
2298 (sense fAmUfGmCfAmGfUmAfCmCfCmAfGmAfCmGfGmAfAdT; antisense dTfUmCfCmGfUmCfUmGfGmGfUmAfCmUfGmCfAmUdT*dT; siRNA) [compound 2298]	0.729 ± 0.092	0.695 ± 0.037
2299 (sense fAmGfUmAfCmCfCmAfGmAfCmGfGmAfUmUfUmCfAdT; antisense dTfGmAfAmAfUmCfCmGfUmCfUmGfGmGfUmAfCmUdT*dT; siRNA) [compound 2299]	0.907 ± 0.171	0.827 ± 0.067

Substance	Relative Rluc-Hif2α (0.1 nM RNAi trigger)	Relative Rluc-Hif2α (1 nM RNAi trigger)
2300 (sense fCmUfGmUfAmGfCmCfCmCfGmCfAmCfAmGfUmCfAdT; antisense dTfGmAfCmUfGmUfGmCfGmGfGmGfCmUfAmCfAmGdT*dT; siRNA) [compound 2300]	1.090 ± 0.106	0.786 ± 0.181
2301 (sense fAmUfCmUfUmCfUmUfUmGfAmUfGmCfCmGfGmAfAdT; antisense dTfUmCfCmGfGmCfAmUfCmAfAmAfGmAfAmGfAmUdT*dT; siRNA) [compound 2301]	0.558 ± 0.034	0.423 ± 0.102
2302 (sense fCmUfUmUfGmAfUmGfCmCfGmGfAmAfGmCfAmAfAdT; antisense dTfUmUfGmCfUmUfCmCfGmGfCmAfUmCfAmAfAmGdT*dT; siRNA) [compound 2302]	0.414 ± 0.019	0.147 ± 0.028
2303 (sense fGmAfUmGfCmCfGmGfAmAfGmCfAmAfAmGfCmAfAdT; antisense dTfUmGfCmUfUmUfGmCfUmUfCmCfGmGfCmAfUmCdT*dT; siRNA) [compound 2303]	0.414 ± 0.002	0.294 ± 0.034
2304 (sense fAmUfGmCfCmGfGmAfAmGfCmAfAmAfGmCfAmUfAdT; antisense dTfAmUfGmCfUmUfUmGfCmUfUmCfCmGfGmCfAmUdT*dT; siRNA) [compound 2304]	0.528 ± 0.116	0.302 ± 0.025
2305 (sense fGmCfCmGfGmAfAmGfCmAfAmAfGmCfAmUfCmCfAdT; antisense dTfGmGfAmUfGmCfUmUfUmGfCmUfUmCfCmGfGmCdT*dT; siRNA) [compound 2305]	0.961 ± 0.120	0.992 ± 0.217
2306 (sense fCmCfCmCfCmAfGmAfUmCfCmAfCmCfAmUfUmAfAdT; antisense dTfUmAfAmUfGmGfUmGfGmAfUmCfUmGfGmGfGmGdT*dT; siRNA) [compound 2306]	0.596 ± 0.038	0.613 ± 0.031
2307 (sense fAmGfAmUfCmCfAmCfCmAfUmUfAmCfAmUfUmUfAdT; antisense dTfAmAfAmUfGmUfAmAfUmGfGmUfGmGfAmUfCmUdT*dT; siRNA) [compound 2307]	0.800 ± 0.248	0.702 ± 0.142
2308 (sense fAmUfUmUfUmGfGmGfCmCfCmAfCmAfAmAfGmUfAdT; antisense dTfAmCfUmUfUmGfUmGfGmGfCmCfCmAfAmAfAmUdT*dT; siRNA) [compound 2308]	0.799 ± 0.084	0.998 ± 0.059
2309 (sense fUmUfUmUfGmGfGmCfCmCfAmCfAmAfAmGfUmGfAdT; antisense dTfCmAfCmUfUmUfGmUfGmGfGmCfCmCfAmAfAmAdT*dT; siRNA) [compound 2309]	0.823 ± 0.096	1.081 ± 0.135
2310 (sense fUmUfUmGfGmGfCmCfCmAfCmAfAmAfGmUfGmGfAdT; antisense dTfCmCfAmCfUmUfUmGfUmGfGmGfCmCfCmAfAmAdT*dT; siRNA) [compound 2310]	0.785 ± 0.122	0.923 ± 0.101
2311 (sense fCmCfAmCfAmAfAmGfUmGfGmGfCmCfGmUfCmGfAdT; antisense dTfCmGfAmCfGmGfCmCfCmAfCmUfUmUfGmUfGmGdT*dT; siRNA) [compound 2311]	0.888 ± 0.051	0.841 ± 0.130
2312 (sense fCmAfCmAfAmAfGmUfGmGfGmCfCmGfUmCfGmGfAdT; antisense dTfCmCfGmAfCmGfGmCfCmCfAmCfUmUfUmGfUmGdT*dT; siRNA) [compound 2312]	0.899 ± 0.124	0.725 ± 0.173
2313 (sense fAmGfUmGfGmGfCmCfGmUfCmGfGmGfGmAfUmCfAdT; antisense dTfGmAfUmCfCmCfCmGfAmCfGmGfCmCfCmAfCmUdT*dT; siRNA) [compound 2313]	0.853 ± 0.133	0.886 ± 0.243
2314 (sense fAmAfAmGfGmGfUmUfUmUfGmGfGmGfCmUfCmGfAdT; antisense dTfCmGfAmGfCmCfCmCfAmAfAmAfCmCfCmUfUmUdT*dT; siRNA) [compound 2314]	0.692 ± 0.141	0.920 ± 0.150
2315 (sense fGmGfCmUfCmGfAmGfGmCfCmCfAmGfAmCfGmUfAdT; antisense dTfAmCfGmUfCmUfGmGfGmCfCmUfCmGfAmGfCmCdT*dT; siRNA) [compound 2315]	0.781 ± 0.206	0.876 ± 0.099

— patent publication US9976141B2, “Compositions and methods for inhibiting gene expression of Hif2alpha” (Arrowhead Madison Inc., priority 2015, dated 2018)
